Results as given in patent US9149475B2, “Protein kinase C inhibitors and uses thereof” (Rigel Pharmaceuticals, Inc., priority 2009, dated 2015).

Test system: Human primary T cells
Experiment: IL-2 ELISA, human primary T cell, anti-CD3+CD28+ (whole cell assay)
Format: cell-based
Details: human primary T cells stimulated with anti-CD3 + anti-CD28, 24 hours
In short: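 IL-2 secreted over 24 h at 37° C was quantified by ELISA after plate-bound αCD3 (1 μg/ml) and αCD28 (5 μg/ml) stimulation, or PMA (0.5 ng/ml) with ionomycin (0.1 μM) as counter-screen. Cells were IL-2-starved primary human T cells, expanded from volunteer PBMC and exposed to compound for 1 hr beforehand.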

| Structure (SMILES) | IC50 (Homo sapiens, T-cell, 24 h) | IC50 |
| --- | --- | --- |
| CC1(C)CC(Nc2nc(Nc3cnc(OCCN4CCCC4=O)c(OC(F)F)c3)ncc2F)CC(C)(C)N1 [Compound I-141, 1-(2-(3-(difluoromethoxy)-5-(5-fluoro-4-(2,2,6,6-tetramethylpiperidin-4-ylamino)pyrimidin-2-ylamino)pyridin-2-yloxy)ethyl)pyrrolidin-2-one] | > 1000 nM | – |
| CN1C(C)(C)CC(Nc2nc(Nc3cnc(OCCN4CCCC4)c(OC(F)F)c3)ncc2F)CC1(C)C [Compound I-142, N2-(5-(difluoromethoxy)-6-(2-(pyrrolidin-1-yl)ethoxy)pyridin-3-yl)-5-fluoro-N4-(1,2,2,6,6-pentamethylpiperidin-4-yl)pyrimidine-2,4-diamine] | > 1000 nM | – |
| CC1(C)CC(Nc2nc(Nc3cnc(OCCN4CCCC4)c(OC(F)F)c3)ncc2F)CC(C)(C)N1 [Compound I-143, N2-(5-(difluoromethoxy)-6-(2-(pyrrolidin-1-yl)ethoxy)pyridin-3-yl)-5-fluoro-N4-(2,2,6,6-tetramethylpiperidin-4-yl)pyrimidine-2,4-diamine] | > 1000 nM | – |
| CN1C(C)(C)CC(Nc2nc(Nc3ccc4c(c3)OCC(C(=O)N3CCCCC3)O4)ncc2F)CC1(C)C (stereo not shown) [II-1, (6-(4-(1,2,2,6,6-pentamethylpiperidin-4-ylamino)-5-fluoropyrimidin-2-ylamino)-2,3-dihydrobenzo[b][1,4]dioxin-2-yl)(piperidin-1-yl)methanone] | > 1000 nM | – |
| CN1C(C)(C)CC(Nc2nc(Nc3ccc4c(c3)OCC(C(=O)N3CCOCC3)O4)ncc2F)CC1(C)C (stereo not shown) [II-2, (6-(4-(1,2,2,6,6-pentamethylpiperidin-4-ylamino)-5-fluoropyrimidin-2-ylamino)-2,3-dihydrobenzo[b][1,4]dioxin-2-yl)(morpholino)methanone] | > 1000 nM | – |
| CC1(C)CC(Nc2nc(Nc3ccc4c(c3)OCC(C(=O)N3CCCCC3)O4)ncc2F)CC(C)(C)N1 (stereo not shown) [II-3, (6-(4-(2,2,6,6-tetramethylpiperidin-4-ylamino)-5-fluoropyrimidin-2-ylamino)-2,3-dihydrobenzo[b][1,4]dioxin-2-yl)(piperidin-1-yl)methanone] | > 1000 nM | – |
| CC1(C)CC(Nc2nc(Nc3ccc4c(c3)OCC(C(=O)N3CCOCC3)O4)ncc2F)CC(C)(C)N1 (stereo not shown) [II-4, (6-(4-(2,2,6,6-tetramethylpiperidin-4-ylamino)-5-fluoropyrimidin-2-ylamino)-2,3-dihydrobenzo[b][1,4]dioxin-2-yl)(morpholino)methanone] | > 1000 nM | – |
| CN1C(C)(C)CC(Nc2nc(Nc3ccc4c(c3)OCC(CN3CCCCC3)O4)ncc2F)CC1(C)C (stereo not shown) [II-5, 5-fluoro-N2-(2,3-dihydro-2-((piperidin-1-yl)methyl)benzo[b][1,4]dioxin-6-yl)-N4-(1,2,2,6,6-pentamethylpiperidin-4-yl)pyrimidine-2,4-diamine] | > 1000 nM | – |
| CN1C(C)(C)CC(Nc2nc(Nc3ccc4c(c3)OCC(CN3CCOCC3)O4)ncc2F)CC1(C)C (stereo not shown) [II-6, 5-fluoro-N2-(2,3-dihydro-2-(morpholinomethyl)benzo[b][1,4]dioxin-6-yl)-N4-(1,2,2,6,6-pentamethylpiperidin-4-yl)pyrimidine-2,4-diamine] | > 1000 nM | – |
| CC1(C)CC(Nc2nc(Nc3ccc4c(c3)OCC(CN3CCCCC3)O4)ncc2F)CC(C)(C)N1 (stereo not shown) [II-7, 5-fluoro-N2-(2,3-dihydro-2-((piperidin-1-yl)methyl)benzo[b][1,4]dioxin-6-yl)-N4-(2,2,6,6-tetramethylpiperidin-4-yl)pyrimidine-2,4-diamine] | > 1000 nM | – |
| CC1(C)CC(Nc2nc(Nc3ccc4c(c3)OCC(CN3CCOCC3)O4)ncc2F)CC(C)(C)N1 (stereo not shown) [II-8, 5-fluoro-N2-(2,3-dihydro-2-(morpholinomethyl)benzo[b][1,4]dioxin-6-yl)-N4-(2,2,6,6-tetramethylpiperidin-4-yl)pyrimidine-2,4-diamine] | > 1000 nM | – |
| CC1(C)CC(Nc2nc(Nc3ccc4c(c3)OCCO4)ncc2F)CC(C)(C)N1 [II-10, N2-(3,4-Ethylenedioxy)phenyl-5-fluoro-N4-(2,2,6,6-tetramethylpiperidin-4-yl)-2,4-pyrimidinediamine] | – | > 1000 nM |
| Cc1nnnn1-c1cc(Nc2ncc(F)c(NC3CC(C)(C)NC(C)(C)C3)n2)ccc1OC1CCN(C(C)C)CC1 [III-2, 5-fluoro-N2-(4-(1-isopropylpiperidin-4-yloxy)-3-(5-methyl-1H-tetrazol-1-yl)phenyl)-N4-(2,2,6,6-tetramethylpiperidin-4-yl)pyrimidine-2,4-diamine] | > 1000 nM | – |
| CC(C)N1CCC(Oc2ccc(Nc3ncc(F)c(NC4CC(C)(C)N(CC(F)(F)F)C(C)(C)C4)n3)cc2OC(F)F)CC1 [III-3, N2-(3-(Difluoromethoxy)-4-(1-isopropylpiperidin-4-yloxy)phenyl)-5-fluoro-N4-(2,2,6,6-tetramethyl-1-(2,2,2-trifluoroethyl)piperidin-4-yl)pyrimidine-2,4-diamine] | > 1000 nM | – |

Other lines, results leading:

| IC50 (Homo sapiens, T-cell, 24 h) | IC50 | Structure (SMILES) |
| --- | --- | --- |
| < 250 nM | – | CC(C)Oc1ncc(Nc2ncc(F)c(NC3CC(C)(C)N(C)C(C)(C)C3)n2)cc1-c1nnnn1C1CC1 [Compound I-137, N2-(5-(1-cyclopropyl-1H-tetrazol-5-yl)-6-isopropoxypyridin-3-yl)-5-fluoro-N4-(1,2,2,6,6-pentamethylpiperidin-4-yl)pyrimidine-2,4-diamine] |
| 500 to 1000 nM | – | CC(C)Oc1ncc(Nc2ncc(F)c(NC3CC(C)(C)NC(C)(C)C3)n2)cc1-c1nnnn1C1CC1 [Compound I-138, N2-(5-(1-cyclopropyl-1H-tetrazol-5-yl)-6-isopropoxypyridin-3-yl)-5-fluoro-N4-(2,2,6,6-tetramethylpiperidin-4-yl)pyrimidine-2,4-diamine] |
| < 250 nM | – | CC(C)Oc1ncc(Nc2ncc(C#N)c(NC3CC(C)(C)N(C)C(C)(C)C3)n2)cc1-c1nnnn1C1CC1 [Compound I-139, 2-(5-(1-cyclopropyl-1H-tetrazol-5-yl)-6-isopropoxypyridin-3-ylamino)-4-(1,2,2,6,6-pentamethylpiperidin-4-ylamino)pyrimidine-5-carbonitrile] |
| 250 to 500 nM | – | CC(C)Oc1ncc(Nc2ncc(C#N)c(NC3CC(C)(C)NC(C)(C)C3)n2)cc1-c1nnnn1C1CC1 [Compound I-140, 2-(5-(1-cyclopropyl-1H-tetrazol-5-yl)-6-isopropoxypyridin-3-ylamino)-4-(2,2,6,6-tetramethylpiperidin-4-ylamino)pyrimidine-5-carbonitrile] |
| 500 to 1000 nM | – | CC1(C)CC(Nc2nc(Nc3ccc(OC4CCN(CC(F)(F)F)CC4)c(OC(F)F)c3)ncc2F)CC(C)(C)N1 [Compound I-144, N2-(4-(1-(2,2,2-trifluoroethyl)piperidin-4-yloxy)-3-(difluoromethoxy)phenyl)-5-fluoro-N4-(2,2,6,6-tetramethylpiperidin-4-yl)pyrimidine-2,4-diamine] |
| 250 to 500 nM | – | CN1C(C)(C)CC(Nc2nc(Nc3ccc(OC4CCN(CC(F)(F)F)CC4)c(OC(F)F)c3)ncc2F)CC1(C)C [Compound I-145, N2-(4-(1-(2,2,2-trifluoroethyl)piperidin-4-yloxy)-3-(difluoromethoxy)phenyl)-5-fluoro-N4-(1,2,2,6,6-pentamethylpiperidin-4-yl)pyrimidine-2,4-diamine] |
| 250 to 500 nM | – | CC(C)N1CC[C@@H](Oc2ccc(Nc3ncc(F)c(NC4CC(C)(C)NC(C)(C)C4)n3)cc2OC(F)F)C1 [Compound I-146, N2-(4-((R)-1-isopropylpyrrolidin-3-yloxy)-3-(difluoromethoxy)phenyl)-5-fluoro-N4-(2,2,6,6-tetramethylpiperidin-4-yl)pyrimidine-2,4-diamine] |
| < 250 nM | – | CC(C)N1CC[C@@H](Oc2ccc(Nc3ncc(F)c(NC4CC(C)(C)N(C)C(C)(C)C4)n3)cc2OC(F)F)C1 [Compound I-147, N2-(4-((R)-1-isopropylpyrrolidin-3-yloxy)-3-(difluoromethoxy)phenyl)-5-fluoro-N4-(1,2,2,6,6-pentamethylpiperidin-4-yl)pyrimidine-2,4-diamine] |
| 250 to 500 nM | – | CC(C)N1CC[C@H](Oc2ccc(Nc3ncc(F)c(NC4CC(C)(C)NC(C)(C)C4)n3)cc2OC(F)F)C1 [Compound I-148, N2-(4-((S)-1-isopropylpyrrolidin-3-yloxy)-3-(difluoromethoxy)phenyl)-5-fluoro-N4-(2,2,6,6-tetramethylpiperidin-4-yl)pyrimidine-2,4-diamine] |
| < 250 nM | – | CC(C)N1CC[C@H](Oc2ccc(Nc3ncc(F)c(NC4CC(C)(C)N(C)C(C)(C)C4)n3)cc2OC(F)F)C1 [Compound I-149, N2-(4-((S)-1-isopropylpyrrolidin-3-yloxy)-3-(difluoromethoxy)phenyl)-5-fluoro-N4-(1,2,2,6,6-pentamethylpiperidin-4-yl)pyrimidine-2,4-diamine] |
| < 250 nM | – | CC(C)N1CCC(Oc2ccc(Nc3ncc(F)c(NC4CC(C)(C)NC(C)(C)C4)n3)cc2C#N)CC1 [Compound I-150, 2-(1-isopropylpiperidin-4-yloxy)-5-(4-(2,2,6,6-tetramethylpiperidin-4-ylamino)-5-fluoropyrimidin-2-ylamino)benzonitrile] |
| 500 to 1000 nM | – | CC(C)N1CCC(Oc2ccc(Nc3ncc(F)c(NC4CC(C)(C)N(C)C(C)(C)C4)n3)cc2C#N)CC1 [Compound I-151, 2-(1-isopropylpiperidin-4-yloxy)-5-(4-(1,2,2,6,6-pentamethylpiperidin-4-ylamino)-5-fluoropyrimidin-2-ylamino)benzonitrile] |
| < 250 nM | – | CC1(C)CC(Nc2nc(Nc3ccc4c(c3)OC(C)(C)C(=O)N4CCF)ncc2F)CC(C)(C)N1 [II-9, N2-[2,2-Dimethyl-4-(2-fluoroethyl)-1,4-benzoxazin-3-one-7-yl]-5-fluoro-N4-(2,2,6,6-tetramethylpiperidin-4-yl)-2,4-pyrimidinediamine] |
| 250 to 500 nM | – | Cc1nnnn1-c1cc(Nc2ncc(F)c(NC3CC(C)(C)N(C)C(C)(C)C3)n2)ccc1OC1CCN(C(C)C)CC1 [III-1, 5-fluoro-N2-(4-(1-isopropylpiperidin-4-yloxy)-3-(5-methyl-1H-tetrazol-1-yl)phenyl)-N4-(1,2,2,6,6-pentamethylpiperidin-4-yl)pyrimidine-2,4-diamine] |
